{"source": "patent US20090197856A1", "about": "“ANTIVIRAL COMPOUNDS” (Genelabs Technologies, Inc., priority 2007, published 2009)"}
{"target": "T1, NS5B (Hepatitis C virus genotype 1b, UniProt Q9WMX2)", "T1 construct": "3 nM NS5B, 20 nM polyC RNA template", "T1 sequence (Q9WMX2 2420-3010)": "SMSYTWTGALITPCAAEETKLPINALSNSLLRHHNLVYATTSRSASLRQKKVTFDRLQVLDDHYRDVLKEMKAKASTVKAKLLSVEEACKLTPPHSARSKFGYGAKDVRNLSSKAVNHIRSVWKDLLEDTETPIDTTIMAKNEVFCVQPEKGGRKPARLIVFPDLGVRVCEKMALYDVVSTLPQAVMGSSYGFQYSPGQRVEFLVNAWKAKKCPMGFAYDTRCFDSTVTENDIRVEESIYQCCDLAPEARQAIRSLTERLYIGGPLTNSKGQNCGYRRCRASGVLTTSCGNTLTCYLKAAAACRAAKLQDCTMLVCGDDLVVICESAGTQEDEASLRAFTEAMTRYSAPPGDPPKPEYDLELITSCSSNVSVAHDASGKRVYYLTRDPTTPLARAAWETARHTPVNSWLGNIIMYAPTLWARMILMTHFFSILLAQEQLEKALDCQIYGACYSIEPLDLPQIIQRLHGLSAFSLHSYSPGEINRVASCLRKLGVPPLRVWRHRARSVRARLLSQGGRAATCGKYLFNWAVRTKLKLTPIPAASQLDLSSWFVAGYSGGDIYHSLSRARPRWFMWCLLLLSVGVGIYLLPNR", "test": "Polymerase assay, incorporation of radiolabeled GTP with biotinylated oligoG13 primer and polycytidylic acid RNA template", "assay_type": "biochemical", "details": "polyC RNA template, biotin-oligoG13 primer, tritiated GTP, 3 nM NS5B, 30° C., 2 hours", "procedure": "The polymerase activity was also assayed by measuring incorporation of radiolabeled GTP into an RNA product using a biotinylated oligoG13 primer with a polycytidylic acid RNA template. Typically, the assay mixture (40 μL) contains 50 mM HEPES (pH 7.3), 2.5 mM magnesium acetate, 2 mM sodium chloride, 37.5 mM potassium acetate, 5 mM DTT, 0.4 U/mL RNasin, 2.5% glycerol, 3 nM NS5B, 20 nM polyC RNA template, 20 nM biotin-oligoG13 primer, and 0.2 μM tritiated guanosine triphosphate. Test compounds were initially dissolved and diluted in 100% DMSO and further diluted into aqueous buffer, producing a final concentration of 5% DMSO. Typically, compounds were tested at concentrations between 0.2 nM and 10 μM. Reactions were started with addition of tritiated guanosine triphosphate and allowed to continue at 30° C. for 2 hours. Reactions were quenched with 100 μL stop buffer containing 10 mM EDTA and 1 μg/mL streptavidin-coated scintillation proximity beads. Reaction plates were incubated at 4° C. for 10 hours and then incorporation of radioactivity was determined by scintillation counting. The table below lists the IC50 values of compounds determined using this procedure.", "units": {"IC50": "nM"}}
{"smiles": "CC1(C)CN2CCCn3c(c(C4CCCCC4)c4ccc(C(=O)O)cc43)-c3cccc1c32", "note": "[Compound 271, 12-cyclohexyl-1,1-dimethyl-1,2,5,6-tetrahydro-4H-[1,5]diazocino[1,2-a:5,4,3-h′i′]diindole-9-carboxylic acid]", "IC50": 15}
{"smiles": "CN1CCC2(C1)C(=O)N1CCCn3c(c(C4CCCCC4)c4ccc(C(=O)O)cc43)-c3cccc2c31", "note": "(centres unmarked) [Compound 272, 12-cyclohexyl-1′-methyl-2-oxo-5,6-dihydro-4H-spiro[1,5-diazocino[1,2-a:5,4,3-h′i′]diindole-1,3′-pyrrolidine]-9-carboxylic acid]", "IC50": 30}
{"smiles": "NC1CCN2CCn3c(c(C4CCCCC4)c4ccc(C(=O)O)cc43)-c3cccc1c32", "note": "(centres unmarked) [Compound 273, 4-Amino-15-cyclohexyl-5,6,8,9-tetrahydro-4H-indolo[1′,2′:4,5][1,4]diazepino[6,7,1-ij]quinoline-12-carboxylic acid]", "IC50": 4.39}
{"smiles": "N[C@@H]1CCN2CCn3c(c(C4CCCCC4)c4ccc(C(=O)O)cc43)-c3cccc1c32", "note": "[Compound 274, (4R)-4-amino-15-cyclohexyl-5,6,8,9-tetrahydro-4H-indolo[1′,2′:4,5][1,4]diazepino[6,7,1-ij]quinoline-12-carboxylic acid]", "IC50": 2.45}
{"smiles": "N[C@H]1CCN2CCn3c(c(C4CCCCC4)c4ccc(C(=O)O)cc43)-c3cccc1c32", "note": "[Compound 275]", "IC50": 10.1}
{"smiles": "CC(C)CNC1CCN2CCn3c(c(C4CCCCC4)c4ccc(C(=O)O)cc43)-c3cccc1c32", "note": "(centres unmarked) [Compound 278]", "IC50": 2.57}
{"smiles": "O=C(O)c1ccc2c(C3CCCCC3)c3n(c2c1)CCN1CCC(NC2CCC2)c2cccc-3c21", "note": "(centres unmarked) [Compound 279]", "IC50": 4.02}
{"smiles": "COCCNC1CCN2CCn3c(c(C4CCCCC4)c4ccc(C(=O)O)cc43)-c3cccc1c32", "note": "(centres unmarked) [Compound 283]", "IC50": 4.3}
{"smiles": "NCCNC1CCN2CCn3c(c(C4CCCCC4)c4ccc(C(=O)O)cc43)-c3cccc1c32", "note": "(centres unmarked) [Compound 284]", "IC50": 6.22}
{"smiles": "CCN(CC)C1CCN2CCn3c(c(C4CCCCC4)c4ccc(C(=O)O)cc43)-c3cccc1c32", "note": "(centres unmarked) [Compound 286]", "IC50": 4.33}
{"smiles": "O=C(O)c1ccc2c(C3CCCCC3)c3n(c2c1)CCN1CCC(N2CCCC2)c2cccc-3c21", "note": "(centres unmarked) [Compound 287, 15-Cyclohexyl-4-pyrrolidin-1-yl-5,6,8,9-tetrahydro-4H-indolo[1′,2′:4,5][1,4]diazepino[6,7,1-ij]quinoline-12-carboxylic acid]", "IC50": 2.71}
{"smiles": "O=C(O)c1ccc2c(C3CCCCC3)c3n(c2c1)CCN1CCC(N2CCCCC2)c2cccc-3c21", "note": "(centres unmarked) [Compound 288]", "IC50": 1.8}
{"smiles": "O=C(O)c1ccc2c(C3CCCCC3)c3n(c2c1)CCN1CCC(N2CCOCC2)c2cccc-3c21", "note": "(centres unmarked) [Compound 289]", "IC50": 2.03}
{"smiles": "CCN(CC)[C@@H]1CCN2CCn3c(c(C4CCCCC4)c4ccc(C(=O)O)cc43)-c3cccc1c32", "note": "[Compound 290]", "IC50": 1.62}
{"smiles": "CCCN[C@@H]1CCN2CCn3c(c(C4CCCCC4)c4ccc(C(=O)O)cc43)-c3cccc1c32", "note": "[Compound 291]", "IC50": 1.94}
{"smiles": "CC(C)N[C@@H]1CCN2CCn3c(c(C4CCCCC4)c4ccc(C(=O)O)cc43)-c3cccc1c32", "note": "[Compound 292, (4R)-15-cyclohexyl-4-(isopropylamino)-5,6,8,9-tetrahydro-4H-indolo[1′,2′:4,5][1,4]diazepino[6,7,1-ij]quinoline-12-carboxylic acid]", "IC50": 2.02}
{"smiles": "CC(=O)N[C@@H]1CCN2CCn3c(c(C4CCCCC4)c4ccc(C(=O)O)cc43)-c3cccc1c32", "note": "[Compound 293, (4R)-4-Acetamido-15-cyclohexyl-5,6,8,9-tetrahydro-4H-indolo[1′,2′:4,5][1,4]diazepino[6,7,1-ij]quinoline-12-carboxylic acid]", "IC50": 1.71}
{"smiles": "CC(C)(C)OC(=O)N[C@@H]1CCN2CCn3c(c(C4CCCCC4)c4ccc(C(=O)O)cc43)-c3cccc1c32", "note": "[Compound 294]", "IC50": 1.55}
{"smiles": "CC(C)(C)OC(=O)N[C@H]1CCN2CCn3c(c(C4CCCCC4)c4ccc(C(=O)O)cc43)-c3cccc1c32", "note": "[Compound 295, (4S)-4-[(tert-butoxycarbonyl)amino]-15-cyclohexyl-5,6,8,9-tetrahydro-4H-indolo[1′,2′:4,5][1,4]diazepino[6,7,1-ij]quinoline-12-carboxylic acid]", "IC50": 8.47}
{"smiles": "CC(C)(C)NC(=O)N[C@@H]1CCN2CCn3c(c(C4CCCCC4)c4ccc(C(=O)O)cc43)-c3cccc1c32", "note": "[Compound 296, (4R)-4-[(tert-Butylcarbamoyl)amino]-15-cyclohexyl-5,6,8,9-tetrahydro-4H-indolo[1′,2′:4,5][1,4]diazepino[6,7,1-ij]quinoline-12-carboxylic acid]", "IC50": 1.01}
{"smiles": "O=C(NCCN1CCCC1)N[C@@H]1CCN2CCn3c(c(C4CCCCC4)c4ccc(C(=O)O)cc43)-c3cccc1c32", "note": "[Compound 297]", "IC50": 1.67}
{"smiles": "N[C@@H]1CCN2CCn3c(c(C4CCCCC4)c4ccc(C(=O)NC5CC5)cc43)-c3cccc1c32", "note": "[Compound 298, (4R)-4-amino-15-cyclohexyl-N-cyclopropyl-5,6,8,9-tetrahydro-4H-indolo[1′,2′:4,5][1,4]diazepino[6,7,1-ij]quinoline-12-carboxamide]", "IC50": 7.17}
{"smiles": "CN(C)S(=O)(=O)NC(=O)c1ccc2c(C3CCCCC3)c3n(c2c1)CCN1CC[C@@H](N)c2cccc-3c21", "note": "[Compound 299, (4R)-4-amino-15-cyclohexyl-N-[(dimethylamino)sulfonyl]-5,6,8,9-tetrahydro-4H-indolo[1′,2′:4,5][1,4]diazepino[6,7,1-ij]quinoline-12-carboxamide]", "IC50": 1}
{"smiles": "CC(C)N1CCC[C@H]1C(=O)N[C@@H]1CCN2CCn3c(c(C4CCCCC4)c4ccc(C(=O)O)cc43)-c3cccc1c32", "note": "[Compound 300, (4R)-15-cyclohexyl-4-[(1-isopropyl-L-prolyl)amino]-5,6,8,9-tetrahydro-4H-indolo[1′,2′:4,5][1,4]diazepino[6,7,1-ij]quinoline-12-carboxylic acid]", "IC50": 0.769}
{"smiles": "NCCC1CCN2CCn3c(c(C4CCCCC4)c4ccc(C(=O)O)cc43)-c3cccc1c32", "note": "(centres unmarked) [Compound 301, 4-(2-aminoethyl)-15-cyclohexyl-5,6,8,9-tetrahydro-4H-indolo[1′,2′:4,5][1,4]diazepino[6,7,1-ij]quinoline-12-carboxylic acid]", "IC50": 3.35}
{"smiles": "NCC[C@H]1CCN2CCn3c(c(C4CCCCC4)c4ccc(C(=O)O)cc43)-c3cccc1c32", "note": "[Compound 303]", "IC50": 6.81}
{"smiles": "O=C(O)c1ccc2c(C3CCCCC3)c3n(c2c1)CCCn1cc(CNS(=O)(=O)C2CC2)c2cccc-3c21", "note": "[Compound 304, 12-Cyclohexyl-1-{[(cyclopropylsulfonyl)amino]methyl}-5,6-dihydro-4H-[1,5]diazocino[1,2-a:5,4,3-h′i′]diindole-9-carboxylic acid]", "IC50": 9}
{"smiles": "CCN(CC)Cc1c(C(=O)N(C)C)n2c3c(cccc13)-c1c(C3CCCCC3)c3ccc(C(=O)O)cc3n1CCC2", "note": "[Compound 306]", "IC50": 8}
{"smiles": "CN(C)C(=O)c1c(CN2CCCCC2)c2cccc3c2n1CCCn1c-3c(C2CCCCC2)c2ccc(C(=O)O)cc21", "note": "[Compound 307]", "IC50": 4}
{"smiles": "CN(C)C(=O)c1c(CNC2CCOCC2)c2cccc3c2n1CCCn1c-3c(C2CCCCC2)c2ccc(C(=O)O)cc21", "note": "[Compound 308]", "IC50": 7}
{"smiles": "CN(C)C(=O)c1c(CN2CCCC2)c2cccc3c2n1CCCn1c-3c(C2CCCCC2)c2ccc(C(=O)O)cc21", "note": "[Compound 309]", "IC50": 6}
{"smiles": "CN(C)C(=O)c1c(CNS(=O)(=O)C2CC2)c2cccc3c2n1CCCn1c-3c(C2CCCCC2)c2ccc(C(=O)O)cc21", "note": "[Compound 310]", "IC50": 6}
{"smiles": "CN(C)C(=O)c1c(CN2CCOCC2)c2cccc3c2n1CCCn1c-3c(C2CCCCC2)c2ccc(C(=O)O)cc21", "note": "[Compound 311]", "IC50": 5}
{"smiles": "CCN(C)Cc1c(C(=O)N(C)C)n2c3c(cccc13)-c1c(C3CCCCC3)c3ccc(C(=O)O)cc3n1CC2", "note": "[Compound 312]", "IC50": 4}
{"smiles": "CC(C)N1CCCC[C@H]1C(=O)N(C)Cc1c(C(=O)N(C)C)n2c3c(cccc13)-c1c(C3CCCCC3)c3ccc(C(=O)O)cc3n1CCC2", "note": "[Compound 313]", "IC50": 2}
{"smiles": "CN(C)C(=O)c1c(CN(C)C(=O)C(C)(C)N2CCCC2)c2cccc3c2n1CCCn1c-3c(C2CCCCC2)c2ccc(C(=O)O)cc21", "note": "[Compound 314]", "IC50": 11}
{"smiles": "CCN(C)Cc1c(C(=O)N(C)C)n2c3c(cccc13)-c1c(C3CCCCC3)c3ccc(C(=O)NS(=O)(=O)N(C)C)cc3n1CCC2", "note": "[Compound 315]", "IC50": 2}
{"smiles": "CCN(C)Cc1c(C(=O)N(C)C)n2c3c(cccc13)-c1c(C3CCCCC3)c3ccc(C(=O)NS(=O)(=O)C4CC4)cc3n1CCC2", "note": "[Compound 316]", "IC50": 5}
{"smiles": "CCN(C)Cc1c(C(=O)N(CC)CC)n2c3c(cccc13)-c1c(C3CCCCC3)c3ccc(C(=O)O)cc3n1CCC2", "note": "[Compound 317]", "IC50": 5}
{"smiles": "CCN(C)Cc1c(C(=O)N2CCN(S(C)(=O)=O)CC2)n2c3c(cccc13)-c1c(C3CCCCC3)c3ccc(C(=O)O)cc3n1CCC2", "note": "[Compound 318]", "IC50": 9}
{"smiles": "CCN(C)Cc1c(C(=O)NC2CC2)n2c3c(cccc13)-c1c(C3CCCCC3)c3ccc(C(=O)O)cc3n1CCC2", "note": "[Compound 319]", "IC50": 11}
{"smiles": "CCN(C)Cc1c(C(=O)N2CCCC2)n2c3c(cccc13)-c1c(C3CCCCC3)c3ccc(C(=O)O)cc3n1CCC2", "note": "[Compound 320]", "IC50": 3}
{"smiles": "CCN(C)Cc1c(C(=O)NS(=O)(=O)N(C)C)n2c3c(cccc13)-c1c(C3CCCCC3)c3ccc(C(=O)O)cc3n1CCC2", "note": "[Compound 321]", "IC50": 8}
{"smiles": "CCN(C)Cc1c(C(=O)NS(=O)(=O)C2CC2)n2c3c(cccc13)-c1c(C3CCCCC3)c3ccc(C(=O)O)cc3n1CCC2", "note": "[Compound 322]", "IC50": 9}
